Data as given in patent US20260242416A1, “ANTIMICROBIAL PEPTIDES” (priority 2023, published 2026).
Values after ≈ are worked out from the molar mass of the structure shown. Where a SMILES comes first, the peptide text is derived from it.

Assays:
[1] = system: Salmonella enterica serovar Enteritidis (human clinical isolate); assay type: cell-based; settings: serovar Enteritidis (human clinical isolate)
Procedure, shortened: (§1)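 MIC taken as lowest peptide level showing no visible growth after 20-24 h at 37° C. Twofold series 128-0.5 μg/mL in Mueller-Hinton broth, polypropylene plates, final inoculum 2-8×10^5 cfu/mL, per CLSI with cationic-peptide adaptations.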

E. coli ATCC 25922 = assay type: cell-based, Escherichia coli; settings: ATCC 25922
Procedure, shortened: as §1

[2] = system: E. coli ATCC 25922, Salmonella Enteritidis, S. aureus ATCC 29213; experiment: Broth microdilution, panel result (at least one / all strains), Example 2; assay type: cell-based; design: key to inhibitory activity (asterisk): *Indicates inhibitory activity; settings: for inhibitory activity (asterisk): Table 14, against at least one of E. coli ATCC 25922, Salmonella Enteritidis, S. aureus ATCC 29213
Procedure, shortened: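 CLSI broth microdilution adapted for cationic peptides, in MHB with a final inoculum of 2-8×10^5 cfu/mL in polypropylene plates. Peptides were serially diluted from 128 down to 0.5 μg/mL and incubated 20-24 h at 37° C. MIC is the lowest concentration with no visible growth.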

S. aureus ATCC 29213 = assay type: cell-based, Staphylococcus aureus; settings: ATCC 29213
Procedure, shortened: as §1

Row | Structure (SMILES) | MIC (ug/mL) S. Enteritidis [1] | MIC (ug/mL) E. coli (E. coli ATCC 25922) | inhibitory activity (asterisk) [2] | MIC (ug/mL) S. aureus (S. aureus ATCC 29213) | spectrum of antimicrobial activity ([2]; panel of E. coli, Salmonella Enteritidis, S. aureus, up to 128 μg/mL)
1 | CC[C@H](C)[C@H](NC(=O)[C@H](CCCCN)NC(=O)[C@H](CCCCN)NC(=O)CNC(=O)[C@H](C)NC(=O)CNC(=O)[C@H](CC(C)C)NC(=O)[C@H](CC(C)C)NC(=O)CNC(=O)[C@H](CO)NC(=O)[C@H](CC(C)C)NC(=O)[C@H](CC(C)C)NC(=O)CN)C(=O)N[C@H](C(=O)N[C@@H](CS)C(=O)NCC(=O)N[C@@H](CC(C)C)C(=O)N[C@@H](CO)C(=O)NCC(=O)N[C@@H](CCSC)C(=O)N[C@@H](CS)C(=O)O)C(C)C [OdMa3] (H-GLLSGLLGAGKKIVCGLSGMC-OH; N-terminus and C-terminus assumed) | 64 µg/mL (≈ 32.4 µM) | 8 to 16 µg/mL | 59.* GLLSGLLGAGKKIVCGLSGMC | 32 µg/mL (≈ 16.2 µM) | –
2 | CC[C@H](C)[C@H](NC(=O)CN)C(=O)N[C@@H](CC(C)C)C(=O)N[C@@H](CO)C(=O)NCC(=O)N[C@@H](CC(C)C)C(=O)N[C@@H](CC(C)C)C(=O)NCC(=O)N[C@@H](C)C(=O)NCC(=O)N[C@@H](CCCCN)C(=O)N[C@@H](CCCCN)C(=O)N[C@H](C(=O)N[C@H](C(=O)N[C@@H](CS)C(=O)O)C(C)C)[C@@H](C)CC [OdMa4, GILSGLLGAGKKIVC] (H-GILSGLLGAGKKIVC-OH; N-terminus and C-terminus assumed) | 32 µg/mL (≈ 22.4 µM) | 8 to 16 µg/mL | 62.* GILSGLLGAGKKIVC | > 128 µg/mL | selective antimicrobial activity against the Gram-negative bacteria tested
3 | CC[C@H](C)[C@H](NC(=O)CN)C(=O)N[C@@H](CC(C)C)C(=O)N[C@@H](CO)C(=O)NCC(=O)N[C@@H](CC(C)C)C(=O)N[C@@H](CC(C)C)C(=O)NCC(=O)N[C@@H](C)C(=O)NCC(=O)N[C@@H](CCCCN)C(=O)N[C@@H](CCCCN)C(=O)N[C@H](C(=O)N[C@H](C(=O)N[C@@H](CS)C(=O)NCC(=O)N[C@@H](CC(C)C)C(=O)N[C@@H](CO)C(=O)NCC(=O)N[C@@H](CC(C)C)C(=O)N[C@@H](CS)C(=O)O)C(C)C)[C@@H](C)CC [OdMa5] (H-GILSGLLGAGKKIVCGLSGLC-OH; N-terminus and C-terminus assumed) | 64 to 128 µg/mL | 8 to 16 µg/mL | 1091.* GILSGLLGAGKKIVCGLSGLC | 8 to 16 µg/mL | –
4 | CC[C@H](C)[C@H](NC(=O)[C@H](CCCCN)NC(=O)[C@H](CCCCN)NC(=O)CNC(=O)[C@@H](NC(=O)CNC(=O)[C@H](CC(C)C)NC(=O)[C@@H](NC(=O)CNC(=O)[C@H](CO)NC(=O)[C@H](CC(C)C)NC(=O)[C@H](CC(C)C)NC(=O)CN)C(C)C)C(C)C)C(=O)N[C@H](C(=O)N[C@@H](CS)C(=O)NCC(=O)N[C@@H](CC(C)C)C(=O)N[C@@H](CO)C(=O)NCC(=O)N[C@@H](CC(C)C)C(=O)N[C@@H](CS)C(=O)O)C(C)C [OdMa6] (H-GLLSGVLGVGKKIVCGLSGLC-OH; N-terminus and C-terminus assumed) | 128 µg/mL (≈ 64.9 µM) | 8 to 16 µg/mL | 1092.* GLLSGVLGVGKKIVCGLSGLC | 16 to 32 µg/mL | –
5 | CC(C)C[C@H](NC(=O)CNC(=O)[C@H](CO)NC(=O)[C@H](CC(C)C)NC(=O)CNC(=O)[C@H](CS)NC(=O)[C@H](CC(C)C)NC(=O)[C@@H](NC(=O)[C@H](CCCCN)NC(=O)[C@H](CCCCN)NC(=O)CNC(=O)[C@@H](NC(=O)CNC(=O)[C@H](CC(C)C)NC(=O)[C@@H](NC(=O)CNC(=O)[C@H](CO)NC(=O)[C@H](CC(C)C)NC(=O)[C@H](CC(C)C)NC(=O)CN)C(C)C)C(C)C)C(C)C)C(=O)N[C@@H](CS)C(=O)O [OdMa7] (H-GLLSGVLGVGKKVLCGLSGLC-OH; N-terminus and C-terminus assumed) | 128 µg/mL (≈ 64.9 µM) | 8 to 16 µg/mL | 1093.* GLLSGVLGVGKKVLCGLSGLC | 16 to 32 µg/mL | –
6 | CC[C@H](C)[C@H](NC(=O)CNC(=O)[C@H](CO)NC(=O)[C@@H](NC(=O)[C@H](CC(C)C)NC(=O)CN)[C@@H](C)CC)C(=O)N[C@@H](CC(C)C)C(=O)NCC(=O)N[C@@H](C)C(=O)NCC(=O)N[C@@H](CCCCN)C(=O)N[C@@H](CCCCN)C(=O)N[C@H](C(=O)N[C@@H](CC(C)C)C(=O)N[C@@H](CS)C(=O)O)C(C)C [OdMa9, GLISGILGAGKKVLC] (H-GLISGILGAGKKVLC-OH; N-terminus and C-terminus assumed) | 128 µg/mL (≈ 89.6 µM) | 64 to 128 µg/mL | 68.* GLISGILGAGKKVLC | > 128 µg/mL | –
7 | CC[C@H](C)[C@H](NC(=O)CNC(=O)[C@H](CO)NC(=O)[C@@H](NC(=O)[C@H](CC(C)C)NC(=O)CN)[C@@H](C)CC)C(=O)N[C@@H](CC(C)C)C(=O)NCC(=O)N[C@@H](C)C(=O)NCC(=O)N[C@@H](CCCCN)C(=O)N[C@@H](CCCCN)C(=O)N[C@H](C(=O)N[C@@H](CC(C)C)C(=O)N[C@@H](CS)C(=O)NCC(=O)N[C@@H](CC(C)C)C(=O)N[C@@H](CO)C(=O)NCC(=O)N[C@@H](CC(C)C)C(=O)N[C@@H](CS)C(=O)O)C(C)C [OdMa10] (H-GLISGILGAGKKVLCGLSGLC-OH; N-terminus and C-terminus assumed) | > 128 µg/mL | 16 to 32 µg/mL | 1094.* GLISGILGAGKKVLCGLSGLC | 64 to 128 µg/mL | –
8 | CC[C@H](C)[C@H](NC(=O)CN)C(=O)N[C@@H](CC(C)C)C(=O)N[C@@H](CO)C(=O)NCC(=O)N[C@@H](CC(C)C)C(=O)N[C@@H](CC(C)C)C(=O)NCC(=O)N[C@@H](C)C(=O)NCC(=O)N[C@@H](CCCCN)C(=O)N[C@@H](CCCCN)C(=O)N[C@@H](CC(C)C)C(=O)N[C@@H](C)C(=O)N[C@@H](CS)C(=O)NCC(=O)N[C@@H](CC(C)C)C(=O)N[C@H](C(=O)NCC(=O)N[C@@H](CC(C)C)C(=O)N[C@@H](CS)C(=O)O)[C@@H](C)CC [OdTo1] (H-GILSGLLGAGKKLACGLIGLC-OH; N-terminus and C-terminus assumed) | 32 to 64 µg/mL | 8 µg/mL (≈ 4.09 µM) | 153.* GILSGLLGAGKKLACGLIGLC | 8 to 16 µg/mL | –
9 | CC[C@H](C)[C@H](NC(=O)CN)C(=O)N[C@@H](Cc1ccccc1)C(=O)NCC(=O)NCC(=O)N[C@@H](Cc1c[nH]cn1)C(=O)N[C@@H](CC(C)C)C(=O)N[C@@H](CCCCN)C(=O)N[C@H](C(=O)NCC(=O)N[C@@H](CCCCN)C(=O)N[C@@H](CCCCN)C(=O)N[C@H](C(=O)N[C@@H](C)C(=O)N[C@@H](CS)C(=O)NCC(=O)N[C@@H](CC(C)C)C(=O)N[C@@H](CO)C(=O)NCC(=O)N[C@@H](CC(C)C)C(=O)N[C@@H](CS)C(=O)O)[C@@H](C)CC)C(C)C [OdTo2] (H-GIFGGHLKVGKKIACGLSGLC-OH; N-terminus and C-terminus assumed) | > 128 µg/mL | 32 µg/mL (≈ 15.5 µM) | 139.* GIFGGHLKVGKKIACGLSGLC | > 128 µg/mL | –
10 | CC[C@H](C)[C@H](NC(=O)CN)C(=O)N[C@@H](Cc1ccccc1)C(=O)NCC(=O)NCC(=O)N[C@@H](CC(C)C)C(=O)N[C@@H](CC(C)C)C(=O)N[C@@H](CCCCN)C(=O)N[C@@H](CCC(=O)O)C(=O)NCC(=O)N[C@@H](CCCCN)C(=O)N[C@@H](CCCCN)C(=O)N[C@H](C(=O)N[C@@H](C)C(=O)N[C@@H](CS)C(=O)NCC(=O)N[C@@H](CC(C)C)C(=O)N[C@@H](CO)C(=O)NCC(=O)N[C@@H](CC(C)C)C(=O)N[C@@H](CS)C(=O)O)[C@@H](C)CC [OdTo3] (H-GIFGGLLKEGKKIACGLSGLC-OH; N-terminus and C-terminus assumed) | > 128 µg/mL | 32 µg/mL (≈ 15.5 µM) | 141.* GIFGGLLKEGKKIACGLSGLC | > 128 µg/mL | –
11 | CC(C)C[C@H](NC(=O)CNC(=O)[C@H](CO)NC(=O)[C@@H](NC(=O)[C@@H](NC(=O)[C@H](CS)NC(=O)[C@H](CC(C)C)NC(=O)[C@@H](NC(=O)[C@H](CCCCN)NC(=O)[C@H](CCCCN)NC(=O)CNC(=O)[C@@H](NC(=O)CNC(=O)[C@H](CC(C)C)NC(=O)[C@@H](NC(=O)[C@H](CCCCN)NC(=O)CNC(=O)[C@H](CC(C)C)NC(=O)[C@H](CC(C)C)NC(=O)CN)C(C)C)C(C)C)C(C)C)C(C)C)C(C)C)C(=O)N[C@@H](CS)C(=O)O [PeNi2] (H-GLLGKVLGVGKKVLCVVSGLC-OH; N-terminus and C-terminus assumed) | 16 to 32 µg/mL | 4 µg/mL (≈ 1.96 µM) | 395.* GLLGKVLGVGKKVLCVVSGLC | 4 µg/mL (≈ 1.96 µM) | –
